Patent US5409709A (priority 1991, dated 1995)

Legend:
[1] = tested on: writhing syndrome; experiment: Analgesic action (acetic acid writhing syndrome); format: in vivo, ddY strain male mice; details: oral, mouse; in terms of the amount of analgesic antipyretic ingredient
[2] = tested on: body temperature (pyrogenic area, yeast); experiment: Antipyretic action (yeast-induced fever); format: in vivo, Wistar strain male rats; details: oral, rat, up to 6 h; in terms of the amount of the antipyretic analgesic ingredient
[3] = tested on: pain threshold; experiment: Analgesic action (pressure stimulation of tail base, rise ratio of pain threshold); format: in vivo, Wistar strain male rats
Protocol: Test medication A consisted of a suspension of Acasia used as the control. The other test medications contained the ingredients listed in the Table below, and were suspended in Acasia solution. These test medications were administered orally at a volume of 1 ml/100 g B.W. A pressure stimulation device (Analgesy-meter Model TK-201, Unicom) was used to apply pressure to the base of the tails of the animals. A pain threshold of […] was selected for the experimented animal based on parameters of reaction to temporary pain consisting of writhing, fleeing and squealing. The pain threshold was measured prior to oral administration of each test medication as well as at 30 and 120 minutes after administration. The ratio of the rise in the pain threshold at 30 and 120 minutes after administration was calculated from comparison with that before administration.

Structure (SMILES): CC(C)Cc1ccc(C(C)C(=O)O)cc1 (stereo not shown) [Ibuprofen, 2-(4-isobutylphenyl)propionic acid]
- ED50 [1]: 137 mg/kg
- ED50 [2]: 20.4 mg/kg
- Pain threshold at 30 minutes (in words) ([3]; 30 minutes after administration): a remarkable rise was observed
- Pain threshold at 120 minutes (in words) ([3]; 120 minutes after administration): essentially equal to that before administration
